# Earlier results in patent publication US20240122858A1, “MODIFIED-RELEASE DOSAGE FORMS OF RUXOLITINIB” (SLAYBACK PHARMA LLC, priority 2021, published 2024).
solubility in aqueous buffers (free base),permeability,aqueous solubility (over a pH range of 1-8),SMILES
sparingly soluble,–,–,N#CC[C@H](C1CCCC1)n1cc(-c2ncnc3[nH]ccc23)cn1 [Ruxolitinib]
–,high permeability,high aqueous solubility,"N#CC[C@H](C1CCCC1)n1cc(-c2ncnc3[nH]ccc23)cn1 [Ruxolitinib phosphate, (3R)-3-cyclopentyl-3-[4-(7H-pyrrolo[2,3-d]-pyrimidin-4-yl)-pyrazol-1-yl]-propanenitrile phosphate]"
